According to article PMC11874377, “Fungal-derived methyldeoxaphomins target Plasmodium falciparum segregation through the inhibition of PfActin1” (Proceedings of the National Academy of Sciences of the …, 2025):
Read-outs that look alike come from different tables or passages of the source.

Experiments:
[1] = tested on: in vitro evolved NPDG-F-resistant Dd2-Pol δ clones (PfActin1 mutations); experiment: Resistant parasite phenotyping and cross resistance, SYBR green I EC50 assay, NPDG-F-resistant clones; type: cell-based, Plasmodium falciparum; settings: for EC50: read-out: EC50 (mean ± SEM)
Procedure: (§1) Cloning by limiting dilution was then performed to isolate individual lines from the bulk population. Due to the multiple mutations identified in the first biological replicate, we isolated four clones from this bulk culture as compared to two clones each from the second and third replicates. These clones were phenotyped via a SYBR green I-based dose–response assay (Table 2 and Fig. 2B). […] The DNA of these clones was then extracted and subjected to whole-genome sequencing.
To investigate whether NPDG-F has the same mode of action as cytochalasin D, we tested our clones for sensitivity to both cytochalasin D and jasplakinolide.
(§2) Resistant parasite phenotyping and cross resistance measurement
The EC50 assay was performed at 1% parasitemia, 1% hematocrit with SYBR green I in 96-well plates. The highest final concentration of the methyldeoxaphomin NPDG-F was set at 100 μM. Briefly, the compound was subjected to a 3-fold serial dilution with ten dilution points. Three technical replicates were set up at each dilution point. The Dd2-Pol δ parent line and the resistant parasites at 2% hematocrit and 1% parasitemia were added to the drug media at 1:1 ratio. The plate was incubated at 37°C for 72 hours in a chamber filled with a hypoxic gas mixture (3% oxygen, 5% carbon dioxide, and 92% nitrogen). After incubation, the cells were lysis with lysis buffer (20 mM Tris-HCL, 0.08% saponin, 5 mM EDTA, and 0.8% Triton X-100) containing SYBR green I (10,000X, Thermo Fisher, cat # S7563) overnight. Fluorescence was measured at 485nm excitation and 530nm emission using a PHERAstar FSX plate reader (BMG Labtech, Germany). Dose response curves were graphed with Prism 9 Version 9.5.1. […]

Dd2-Pol δ parent line = experiment: Resistant parasite phenotyping and cross resistance, SYBR green I EC50 assay, parent line; type: cell-based, Plasmodium falciparum; settings: strain Dd2-Pol δ -parent, read-out: EC50 (mean ± SEM)
Procedure: as §1, §2
The EC50 assay was performed at 1% parasitemia, 1% hematocrit with SYBR green I in 96-well plates. The highest final concentration of the methyldeoxaphomin NPDG-F was set at 100 μM. Briefly, the compound was subjected to a 3-fold serial dilution with ten dilution points. Three technical replicates were set up at each dilution point. The Dd2-Pol δ parent line and the resistant parasites at 2% hematocrit and 1% parasitemia were added to the drug media at 1:1 ratio. The plate was incubated at 37°C for 72 hours in a chamber filled with a hypoxic gas mixture (3% oxygen, 5% carbon dioxide, and 92% nitrogen). After incubation, the cells were lysis with lysis buffer (20 mM Tris-HCL, 0.08% saponin, 5 mM EDTA, and 0.8% Triton X-100) containing SYBR green I (10,000X, Thermo Fisher, cat # S7563) overnight. Fluorescence was measured at 485nm excitation and 530nm emission using a PHERAstar FSX plate reader (BMG Labtech, Germany). Dose response curves were graphed with Prism 9 Version 9.5.1.
3D structural analysis of the mutations and docking studies
The crystal structure of PfActin1 with accession number 6TU4 (resolution 2.60 Ang) (Vahokoski et al., 2022) was obtained from the Protein Data Bank (PDB). This structure of PfActin1 contains ligands Jasplakinolide and ADP with a coordinating magnesium ion.
Only chain A was used for the docking experiment. […] Schrodinger maestro software (Schrödinger, LLC) was used to build NPDG-F with the proper stereochemistry using the x-ray structure determined for analog NPDG-A (vide supra). […]

barbed end of F-actin = settings: read-out: binding affinity Kd; cited from earlier work
P. falciparum = experiment: Isobologram assay with NPDG-F; type: cell-based, Plasmodium falciparum
Procedure: To further explore the relationship of NPDG-F with established actin-interfering drugs, an isobologram study was performed (Fig. 3). NPDG-F was added in combination with four inhibtors known to interfere with actin polymerization including a formin inhibitor SMIFH2, cofilin inhibitor SZ-3, F-actin targeting compound jasplakinolide, and G-actin targeting latrunculin B. The frontline antimalarial DHA was also added as a nonactin inhibitor control. After dose–response curves were generated (Fig. 3A), the fractional inhibitory concentrations (FICs) of NPDG-F and the combination drug were calculated and graphed. […]
Plasmodium blood stage culture
Parasite culture in the Chakrabarti lab was maintained following a modified Trager and Jensen protocol (Trager & Jensen, 1976) as previously described (Lee et al., 2021) with RPMI 1640 with 25 mM HEPES pH 7.4, 26 mM NaHCO3, 15 mg/L hypoxanthine, 0.5% Albumax II, 25 mg/L gentamycin, and 2% dextrose. Parasites were grown with human A+ erythrocytes obtained from Florida OneBlood. Cultures were kept in an incubator with 5% […]
Antiplasmodial activity screening
SYBR Green I-based fluorescence assay was performed as previously described (Lee et al., 2021) following protocols by Smilkstein et. al. (Smilkstein et al., 2004). Asynchronous Dd2 parasites were added to serially diluted compounds and incubated for 72 h at 5% CO2, 95% air at 37°C. Plates were then frozen at -80°C, thawed, and incubated for one hour with 1x SYBR Green I in a lysis buffer (20 mM Tris-HCL, 0.08% saponin, 5 mM EDTA, and 0.8% Triton X-100). Fluorescence was then read on a Synergy Neo2 multimode reader (BioTek Winsooki, VT). Compound dose response curves and EC50 determination was performed using CDD Vault normalized to 10 µM CQ and vehicle […]
For isobologram assessment, inhibitors were tested using a 1:2 dilution with starting concentrations selected as 40 nM for DHA, 100 µM Latrunculin B, 100 µM SMIFH2, and 40 nM for jasplakinolide. These concentrations were selected to provide 2-3 points above […]
EC50s. The test inhibitor methyldeoxaphomin NPDG-F was then added in combination with the aforementioned inhibitors at concentrations ranging from 10 to 0.3125 µM. Dose-response curves were then generated for the available conditions where EC50s could be determined. The fractional inhibitor concentration of both compounds was then determined as described (Fivelman et al., 2004) for the available points and graphed on a scale of 0-1 also using Graphpad Prism version 10. […]

C=C1[C@@H](C)[C@H]2[C@H](Cc3ccccc3)NC(=O)[C@]23[C@H](OC(C)=O)/C=C/[C@@](C)(O)C(=O)[C@@H](C)C/C=C/[C@H]3[C@@H]1O [Cytochalasin D, cytochalasin D]
cross-resistance of NPDG-F-resistant clones [1]: cross-resistant
average EC50 shift, clones from flasks 2 and 3 ([1]; A136S): 3.9 fold
average EC50 shift, clones from flask 1 ([1]; A171V/S and I290L clones): 20 fold
EC50 ([1]; Plasmodium falciparum, DD2, clone 1-C7, A171S (8%), A171V (92%), I290L): 302 ± 8.8 nM
EC50 ([1]; Plasmodium falciparum, DD2, clone 1-D6, A171S (3%), A171V (97%), I290L): 317 ± 9.2 nM
EC50 ([1]; Plasmodium falciparum, DD2, clone 1-D7, A171S (22%), A171V (78%), I290L): 402 ± 7 nM
EC50 ([1]; Plasmodium falciparum, DD2, clone 1-F3, A171S (4%), A171V (96%), I290L): 367 ± 7.8 nM
EC50 ([1]; Plasmodium falciparum, DD2, clone 2-C4, A136S): 60.8 ± 0.8 nM
EC50 ([1]; Plasmodium falciparum, DD2, clone 2-F5, A136S): 71.3 ± 1.7 nM
EC50 ([1]; Plasmodium falciparum, DD2, clone 3-C3, A136S): 66.4 ± 0.2 nM
EC50 ([1]; Plasmodium falciparum, DD2, clone 3-C5, A136S): 73.2 ± 0.7 nM
Fold change ([1]; clone 1-C7 vs Dd2-Pol δ parent): 17.5
Fold change ([1]; clone 1-D6 vs Dd2-Pol δ parent): 18.3
Fold change ([1]; clone 1-D7 vs Dd2-Pol δ parent): 23.3
Fold change ([1]; clone 1-F3 vs Dd2-Pol δ parent): 21.2
Fold change ([1]; clone 2-C4 vs Dd2-Pol δ parent): 3.5
Fold change ([1]; clone 2-F5 vs Dd2-Pol δ parent): 4.1
Fold change ([1]; clone 3-C3 vs Dd2-Pol δ parent): 3.8
Fold change ([1]; clone 3-C5 vs Dd2-Pol δ parent): 4.2
EC50 (Dd2-Pol δ parent line; Plasmodium falciparum): 17.3 ± 0.5 nM
Kd (barbed end of F-actin): ~2 nM

C/C1=C\[C@H](C)C[C@H](C)OC(=O)C[C@H](c2ccc(O)cc2)NC(=O)[C@@H](Cc2c(Br)[nH]c3ccccc23)N(C)C(=O)[C@H](C)NC(=O)[C@@H](C)C1 [Jasplakinolide, jasplakinolide]
EC50 ([1]; clone 1-C7, A171S (8%), A171V (92%), I290L): 25.2 ± 0.4 nM
Fold change ([1]; clone 1-C7 vs Dd2-Pol δ parent): 1.0
EC50 ([1]; clone 1-D6, A171S (3%), A171V (97%), I290L): 27.6 ± 4 nM
Fold change ([1]; clone 1-D6 vs Dd2-Pol δ parent): 1.1
EC50 ([1]; clone 1-D7, A171S (22%), A171V (78%), I290L): 25.9 ± 0.8 nM
Fold change ([1]; clone 1-D7 vs Dd2-Pol δ parent): 1.0
EC50 ([1]; clone 1-F3, A171S (4%), A171V (96%), I290L): 30.7 ± 3.2 nM
Fold change ([1]; clone 1-F3 vs Dd2-Pol δ parent): 1.2
EC50 ([1]; clone 2-C4, A136S): 22.4 nM
Fold change ([1]; clone 2-C4 vs Dd2-Pol δ parent): 0.9
EC50 ([1]; clone 2-F5, A136S): 25.1 ± 2.9 nM
Fold change ([1]; clone 2-F5 vs Dd2-Pol δ parent): 1.0
EC50 ([1]; clone 3-C3, A136S): 24 nM
Fold change ([1]; clone 3-C3 vs Dd2-Pol δ parent): 1.0
EC50 ([1]; clone 3-C5, A136S): 25.4 ± 2.1 nM
Fold change ([1]; clone 3-C5 vs Dd2-Pol δ parent): 1.0
EC50 (Dd2-Pol δ parent line): 25.1 ± 1.4 nM
fractional inhibitory concentration (FIC) (P. falciparum; combination with NPDG-F): highest FIC values overall
IC50 (P. falciparum; single compounds, dose–response, Fig. 3A, read-out: Mean IC50 ± SEM): 58 ± 17 nM
